Laboratory results taken from US20080206322A1, “Pharmaceutical Multiparticulate Composit Ion Comprising Mycophenolic Acid or Myco Phenolate Sodium and Combination Compositions with Rapamycin” (NOVARTIS AG, priority 2004, published 2008).
Where two headings read alike, the source gives them in different places.

Assay: Solubility in acidic medium
Type: physicochemical

solubility in acidic medium: low solubility
solubility in acidic medium (listed as MPA): poor solubility
SMILES: COc1c(C)c2c(c(O)c1C/C=C(\C)CCC(=O)O)C(=O)OC2 [mycophenolic acid]
